Source: patent US20210355421A1, “DEVICES AND METHODS FOR PRODUCTION OF CELL AGGREGATES” (priority 2007, published 2021)
“Also recorded” adds a separate entry of the source.

Legend:
hESC [1] = test: aggregate formation from hESC cultured on Matrigel after BMP pre-differentiation; type: cell-based, human; details: 50 ng/mL BMP4 pre-differentiation, control population did not form aggregates
hESC [2] = test: forced aggregation of hESC with or without ROCK inhibitor Y-27632; type: cell-based, human
Protocol: • 1. […] The precise degree of pre-differentiation that is optimal will vary with the cell line in question, exact maintenance techniques, etc. If EB coherence is still insufficient after treatment as above, pre-differentiation can be started earlier (i.e the duration increased) or (if using BMPs), BMP concentration can be increased. […] Prepare low-adsorbance well plates: • a) dispense 40 μL (for 96-well plates) or 25 μL (for 384-well plates) of 5% Pluronic acid in PBS into the plates • b) incubate 30 minutes at room temperature • c) remove pluronic acid solution by pipetting or by inverted centrifugation in the device described and illustrated in FIG. 1 or 2 for 1 minute at 240×g • 3. Prepare a single-cell suspension by treating the hESC culture with TrypIE for 5 minutes, and washing the cells off with X-Vivo10 • 4. Count cells, spin down and re-suspend to 1 million cells/mL in X-Vivo or other medium of interest. Cells may all derive from a single culture, or cells from different sources may be combined. • 5. […] In the absence of both, no aggregates were formed (N.D.—size not determined). […]

Compound | stable aggregate formation after BMP4 pre-differentiation (hESC [1]) | aggregate size and symmetry (hESC [2]; 10 μM Y-27632, hESC cultured on Matrigel, 2,000 cells per well, without or with 48 hours pre-differentiation in serum-containing medium) | SISO-aggregate formation / aggregate stability (hESC [2]; 10 μM Y-27632 added to cell suspension immediately prior to dispensing, hESC on Matrigel in MEF-conditioned medium, without or with pre-differentiation)
BMP4: bone morphogenetic protein used as growth factor for pre-differentiation | Aggregates formed from the pre-differentiated population |  | 
C[C@@H](N)[C@H]1CC[C@H](C(=O)Nc2ccncc2)CC1 [Y-27632] |  | substantially increased aggregate size and symmetry; also recorded: size and symmetry of aggregates are improved | sizeable aggregates resulted
